# Reference: ChEMBL document CHEMBL1129930, “Analogues of methotrexate in rheumatoid arthritis. 2. Effects of 5-deazaaminopterin, 5,10-dideazaaminopterin, and analogues on type II collagen-induced arthritis in mice” (J Med Chem, 1997)
# What was measured:
# L1210 = experiment: Concentration required to inhibit the growth of L1210 cells.; type: functional, cell-based; settings: Mus musculus
# Mus musculus [1] = experiment: Incidence of disease (mouse type II collagen) was scored as the percentage of animals within each experimental group that exhibited joint or limb inflammation on day 30 at intraperitoneal dose of 12 mg/kg; type: functional
# Mus musculus [2] = experiment: Incidence of disease (mouse type II collagen) was scored as the percentage of animals within each experimental group that exhibited joint or limb inflammation on day 23 at intraperitoneal dose of 12 mg/kg; type: functional
# Mus musculus [3] = experiment: Tested for antiinflammatory activity on mouse type II collagen arthritis as Paw swelling of all animals in each group on day 44 at intraperitoneal dose of 6 mg/kg; type: functional
# Mus musculus [4] = experiment: Tested for antiinflammatory activity on mouse type II collagen arthritis as Paw swelling of all animals in each group on day 44 at intraperitoneal dose of 12 mg/kg; type: functional
# Mus musculus [5] = experiment: Incidence of disease (mouse type II collagen) was scored as the percentage of animals within each experimental group that exhibited joint or limb inflammation on day 23 at intraperitoneal dose of 18 mg/kg; type: functional
# Mus musculus [6] = experiment: Incidence of disease (mouse type II collagen) was scored as the percentage of animals within each experimental group that exhibited joint or limb inflammation on day 37 at intraperitoneal dose of 6 mg/kg; type: functional
# Mus musculus [7] = experiment: Incidence of disease (mouse type II collagen) was scored as the percentage of animals within each experimental group that exhibited joint or limb inflammation on day 30 at intraperitoneal dose of 18 mg/kg; type: functional
# Mus musculus [8] = experiment: Tested for antiinflammatory activity on mouse type II collagen arthritis as Paw swelling of all animals in each group on day 37 at intraperitoneal dose of 18 mg/kg; type: functional
# Mus musculus [9] = experiment: Tested for antiinflammatory activity on mouse type II collagen arthritis as Paw swelling of all animals in each group on day 30 at intraperitoneal dose of 12 mg/kg; type: functional
# Mus musculus [10] = experiment: Incidence of disease (mouse type II collagen) was scored as the percentage of animals within each experimental group that exhibited joint or limb inflammation on day 37 at intraperitoneal dose of 18 mg/kg; type: functional
# Mus musculus [11] = experiment: Incidence of disease (mouse type II collagen) was scored as the percentage of animals within each experimental group that exhibited joint or limb inflammation on day 30 at intraperitoneal dose of 6 mg/kg; type: functional
# Mus musculus [12] = experiment: Incidence of disease (mouse type II collagen) was scored as the percentage of animals within each experimental group that exhibited joint or limb inflammation on day 44 at intraperitoneal dose of 12 mg/kg; type: functional
# Mus musculus [13] = experiment: Incidence of disease (mouse type II collagen) was scored as the percentage of animals within each experimental group that exhibited joint or limb inflammation on day 37 at intraperitoneal dose of 12 mg/kg; type: functional
# Mus musculus [14] = experiment: Incidence of disease (mouse type II collagen) was scored as the percentage of animals within each experimental group that exhibited joint or limb inflammation on day 23 at intraperitoneal dose of 6 mg/kg; type: functional
# Mus musculus [15] = experiment: Incidence of disease (mouse type II collagen) was scored as the percentage of animals within each experimental group that exhibited joint or limb inflammation on day 44 at intraperitoneal dose of 18 mg/kg; type: functional
# Mus musculus [16] = experiment: Tested for antiinflammatory activity on mouse type II collagen arthritis as Paw swelling of all animals in each group on day 37 at intraperitoneal dose of 12 mg/kg; type: functional
# Mus musculus [17] = experiment: Tested for antiinflammatory activity on mouse type II collagen arthritis as Paw swelling of all animals in each group on day 30 at intraperitoneal dose of 6 mg/kg; type: functional
# Mus musculus [18] = experiment: Tested for antiinflammatory activity on mouse type II collagen arthritis as Paw swelling of all animals in each group on day 23 at intraperitoneal dose of 6 mg/kg; type: functional
# Mus musculus [19] = experiment: Tested for antiinflammatory activity on mouse type II collagen arthritis as Paw swelling of all animals in each group on day 37 at intraperitoneal dose of 6 mg/kg; type: functional
# Mus musculus [20] = experiment: Tested for antiinflammatory activity on mouse type II collagen arthritis as Paw swelling of all animals in each group on day 23 at intraperitoneal dose of 18 mg/kg; type: functional
# Mus musculus [21] = experiment: Incidence of disease (mouse type II collagen) was scored as the percentage of animals within each experimental group that exhibited joint or limb inflammation on day 44 at intraperitoneal dose of 6 mg/kg; type: functional
# Mus musculus [22] = experiment: Tested for antiinflammatory activity on mouse type II collagen arthritis as Paw swelling of all animals in each group on day 30 at intraperitoneal dose of 18 mg/kg; type: functional
# [23] = Concentration required to inhibit the growth of chang liver cells.; type: functional; settings: Homo sapiens
# Mus musculus [24] = experiment: Tested for antiinflammatory activity on mouse type II collagen arthritis as Paw swelling of all animals in each group on day 23 at intraperitoneal dose of 12 mg/kg; type: functional
# Mus musculus [25] = experiment: Tested for antiinflammatory activity on mouse type II collagen arthritis as Paw swelling of all animals in each group on day 44 at intraperitoneal dose of 18 mg/kg; type: functional
# Mus musculus [26] = experiment: Tested for antiinflammatory activity on mouse type II collagen arthritis as Paw swelling of all animals in each group on day 44 at intraperitoneal dose of 0.50 mg/kg; type: functional; settings: dose 0.5 mg/kg
# Mus musculus [27] = experiment: Tested for antiinflammatory activity on mouse type II collagen arthritis as Paw swelling of all animals in each group on day 37 at intraperitoneal dose of 0.50 mg/kg; type: functional; settings: dose 0.5 mg/kg
# Mus musculus [28] = experiment: Incidence of disease (mouse type II collagen) was scored as the percentage of animals within each experimental group that exhibited joint or limb inflammation on day 44 at intraperitoneal dose of 0.50 mg/kg (deaths observed at 1.5 mg/kg); type: functional
# Mus musculus [29] = experiment: Incidence of disease (mouse type II collagen) was scored as the percentage of animals within each experimental group that exhibited joint or limb inflammation on day 30 at intraperitoneal dose of 1 mg/kg (deaths observed at 1.5 mg/kg); type: functional
# Mus musculus [30] = experiment: Tested for antiinflammatory activity on mouse type II collagen arthritis as Paw swelling of all animals in each group on day 30 at intraperitoneal dose of 0.50 mg/kg; type: functional; settings: dose 0.5 mg/kg
# Mus musculus [31] = experiment: Tested for antiinflammatory activity on mouse type II collagen arthritis as Paw swelling of all animals in each group on day 23 at intraperitoneal dose of 0.25 mg/kg; type: functional
# Mus musculus [32] = experiment: Tested for antiinflammatory activity on mouse type II collagen arthritis as Paw swelling of all animals in each group on day 23 at intraperitoneal dose of 0.50 mg/kg; type: functional; settings: dose 0.5 mg/kg
# Mus musculus [33] = experiment: Incidence of disease (mouse type II collagen) was scored as the percentage of animals within each experimental group that exhibited joint or limb inflammation on day 23 at intraperitoneal dose of 1 mg/kg (deaths observed at 1.5 mg/kg); type: functional
# Mus musculus [34] = experiment: Tested for antiinflammatory activity on mouse type II collagen arthritis as Paw swelling of all animals in each group on day 30 at intraperitoneal dose of 0.25 mg/kg; type: functional
# Mus musculus [35] = experiment: Incidence of disease (mouse type II collagen) was scored as the percentage of animals within each experimental group that exhibited joint or limb inflammation on day 30 at intraperitoneal dose of 0.50 mg/kg (deaths observed at 1.5 mg/kg); type: functional
# Mus musculus [36] = experiment: Incidence of disease (mouse type II collagen) was scored as the percentage of animals within each experimental group that exhibited joint or limb inflammation on day 37 at intraperitoneal dose of 0.25 mg/kg (deaths observed at 1.5 mg/kg); type: functional
# Mus musculus [37] = experiment: Tested for antiinflammatory activity on mouse type II collagen arthritis as Paw swelling of all animals in each group on day 37 at intraperitoneal dose of 1 mg/kg; type: functional
# Mus musculus [38] = experiment: Tested for antiinflammatory activity on mouse type II collagen arthritis as Paw swelling of all animals in each group on day 44 at intraperitoneal dose of 0.25 mg/kg; type: functional
# Mus musculus [39] = experiment: Incidence of disease (mouse type II collagen) was scored as the percentage of animals within each experimental group that exhibited joint or limb inflammation on day 37 at intraperitoneal dose of 0.50 mg/kg (deaths observed at 1.5 mg/kg); type: functional
# Mus musculus [40] = experiment: Tested for antiinflammatory activity on mouse type II collagen arthritis as Paw swelling of all animals in each group on day 37 at intraperitoneal dose of 0.25 mg/kg; type: functional
# Mus musculus [41] = experiment: Tested for antiinflammatory activity on mouse type II collagen arthritis as Paw swelling of all animals in each group on day 30 at intraperitoneal dose of 1 mg/kg; type: functional
# Mus musculus [42] = experiment: Incidence of disease (mouse type II collagen) was scored as the percentage of animals within each experimental group that exhibited joint or limb inflammation on day 37 at intraperitoneal dose of 1 mg/kg (deaths observed at 1.5 mg/kg); type: functional
# Mus musculus [43] = experiment: Incidence of disease (mouse type II collagen) was scored as the percentage of animals within each experimental group that exhibited joint or limb inflammation on day 44 at intraperitoneal dose of 1 mg/kg (deaths observed at 1.5 mg/kg); type: functional
# Mus musculus [44] = experiment: Incidence of disease (mouse type II collagen) was scored as the percentage of animals within each experimental group that exhibited joint or limb inflammation on day 23 at intraperitoneal dose of 0.50 mg/kg (deaths observed at 1.5 mg/kg); type: functional
# Mus musculus [45] = experiment: Tested for antiinflammatory activity on mouse type II collagen arthritis as Paw swelling of all animals in each group on day 44 at intraperitoneal dose of 1 mg/kg; type: functional
# Mus musculus [46] = experiment: Incidence of disease (mouse type II collagen) was scored as the percentage of animals within each experimental group that exhibited joint or limb inflammation on day 30 at intraperitoneal dose of 0.25 mg/kg (deaths observed at 1.5 mg/kg); type: functional
# Mus musculus [47] = experiment: Incidence of disease (mouse type II collagen) was scored as the percentage of animals within each experimental group that exhibited joint or limb inflammation on day 23 at intraperitoneal dose of 0.25 mg/kg (deaths observed at 1.5 mg/kg); type: functional
# Mus musculus [48] = experiment: Incidence of disease (mouse type II collagen) was scored as the percentage of animals within each experimental group that exhibited joint or limb inflammation on day 44 at intraperitoneal dose of 0.25 mg/kg (deaths observed at 1.5 mg/kg); type: functional
smiles,measurement,setting,value
Nc1nc(N)c2cc(CCc3ccc(C(=O)NC(CCC(=O)O)C(=O)O)cc3)cnc2n1 (stereo unspecified),IC50,L1210,27 nM
same,Animals,Mus musculus [1],12%
same,Animals,Mus musculus [2],0%
same,Paw swelling,Mus musculus [3],2.29 mm
same,Paw swelling,Mus musculus [4],2.28 mm
same,Animals,Mus musculus [5],12%
same,Animals,Mus musculus [6],25%
same,Animals,Mus musculus [7],0%
same,Paw swelling,Mus musculus [8],2.15 mm
same,Paw swelling,Mus musculus [9],2.24 mm
same,Animals,Mus musculus [10],0%
same,Animals,Mus musculus [11],25%
same,Animals,Mus musculus [12],25%
same,Animals,Mus musculus [13],12%
same,Animals,Mus musculus [14],12%
same,Animals,Mus musculus [15],0%
same,Paw swelling,Mus musculus [16],2.24 mm
same,Paw swelling,Mus musculus [17],2.28 mm
same,Paw swelling,Mus musculus [18],2.17 mm
same,Paw swelling,Mus musculus [19],2.26 mm
same,Paw swelling,Mus musculus [20],2.15 mm
same,Animals,Mus musculus [21],38%
same,Paw swelling,Mus musculus [22],2.16 mm
same,IC50,[23],37 nM
same,Paw swelling,Mus musculus [24],2.12 mm
same,Paw swelling,Mus musculus [25],2.2 mm
CCc1c(CNc2ccc(C(=O)NC(CCC(=O)O)C(=O)O)cc2)cnc2nc(N)nc(N)c12 (stereo unspecified),Paw swelling,Mus musculus [26],2.43 mm
same,Paw swelling,Mus musculus [27],2.42 mm
same,Animals,Mus musculus [28],71%
same,Animals,Mus musculus [29],25%
same,Paw swelling,Mus musculus [30],2.38 mm
same,Paw swelling,Mus musculus [31],2.25 mm
same,Paw swelling,Mus musculus [32],2.31 mm
same,IC50,L1210,1.9 nM
same,Animals,Mus musculus [33],12%
same,Paw swelling,Mus musculus [34],2.22 mm
same,Animals,Mus musculus [35],57%
same,Animals,Mus musculus [36],50%
same,Paw swelling,Mus musculus [37],2.32 mm
same,Paw swelling,Mus musculus [38],2.33 mm
same,Animals,Mus musculus [39],86%
same,Paw swelling,Mus musculus [40],2.34 mm
same,Paw swelling,Mus musculus [41],2.19 mm
same,Animals,Mus musculus [42],62%
same,Animals,Mus musculus [43],62%
same,Animals,Mus musculus [44],43%
same,Paw swelling,Mus musculus [45],2.29 mm
same,Animals,Mus musculus [46],0%
same,IC50,[23],126 nM
same,Animals,Mus musculus [47],38%
same,Animals,Mus musculus [48],62%
